{"source": "patent US20200093103A1", "about": "“BREEDING WATER FOR ANGUILLIFORMES AND METHOD FOR REARING ANGUILLIFORMES” (SHIN NIPPON BIOMEDICAL LABORATORIES, LTD., priority 2016, published 2020)", "system": "Anguilla japonica leptocephali", "experiment": "Induction of Anguilla japonica metamorphosis by T4 treatment in 23° C. breeding water", "type": "in vivo", "design": "key: L: During life, no characteristics of metamorphosis seen.; Stage 1: Starting phase of metamorphosis. The rostral end is rounded, and intestinal degeneration starts.; Stage 2: Peak phase of metamorphosis. Intestinal degeneration becomes pronounced.; Stage 3: Late phase of metamorphosis.; Stage 4: Pre-glass eel stage. Almost the eel form, but the body height still remains", "description": "Stage 1: Starting phase of metamorphosis. The rostral end is rounded, and intestinal degeneration starts.\nStage 2: Peak phase of metamorphosis. Intestinal degeneration becomes pronounced. In the second half, the anus reaches to near the last vertical blood vessel (VBV last).\nStage 3: Late phase of metamorphosis. The preanal length (PAL) becomes equal to or shorter than the last vertical blood vessel length (VBV last Length) (PAL VBV last Length). The body height is apparently low.\nStage 4: Pre-glass eel stage. Almost the eel form, but the body height still remains. Melanophores on the body surface or endogenous melanophores are not yet seen.\nElver stage: Juvenile stage. Food intake can be identified.\nA thyroid hormone (e.g., thyroxine (T4)) is adjusted to 50 to 100 mM in a 1- to 2-mL volume messflask. As a solvent, known solvents (water, alcohol) can be used. Ethanol is preferably used as the solvent.\nFor example, using ethanol as a solvent, T4 adjusted to 50 mM is diluted 500-fold, 5,000-fold, and 50,000-fold, respectively, and adjusted to […], 1 μM, and 100 nM. A feed can be prepared in this manner.\nArtificial seawater is added to a breeding vessel, and 1/1000 of the […] T4 is added to prepare […] T4 breeding water.\nHalf of the breeding water is replaced every two days with breeding water of the same concentration. In the case where the concentration is changed, for example, in the case of changing from 10 nM to 2 nM, 80% to the breeding water is removed, and unadjusted artificial seawater is newly added to make 1 L.\nLeptocephali visually considered to have reached a total length of 40 mm (or may be 30 mm to 50 mm, may be 35 mm to 45 mm, or may also be 35 mm or more, 40 mm or more, or 45 mm or more) are selected, anesthetized with 2-phenoxyethanol, and then photographed, and the total length of each larva is measured using an image analyzing device.\nThe larvae are placed in 10 nM T4 breeding water and then placed in an incubator set at 23° C., and breeding is started. In first one week, observation is performed every two days, and half of the 10 nM T4 breeding water is replaced each time. The average amount of thyroid hormone in the breeding water in stage 1 is 1 nM to 100 nM, for example, and may also be 3 nM to 30 nM, or 5 nM to 20 nM.\nFor larvae visually judged to have reached the second half of stage 2, the concentration of the breeding water is changed. The breeding water is diluted 5-fold or 10-fold and adjusted to 2 nM or 1 nM T4, and breeding is continued. The average amount of thyroid hormone in the breeding water in stage 2 may be, as compared with the breeding water of stage 1, diluted 2-fold to 20-fold, diluted 3 to 15-fold, or diluted 5 to 10-fold as described above. The average amount of thyroid hormone in the breeding water in stage 2 is 0.1 nM to 20 nM, for example, and may also be 0.5 nM to 10 nM, 1 nM to 5 nM, or 1 nM to 2 nM.\nFor larvae visually judged to have reached stage 3, the breeding water is quickly changed 0.2 nM T4 breeding water, which is a 5-fold dilution of 1 nM T4 breeding water, and further changed to 0.1 nM T4 breeding water on the following day. […] Also, in larvae whose anus position has not reached the last vertical hemal spine, when they are judged to be on the brink of stage 3, the concentration is changed as above. The average amount of thyroid hormone in the breeding water in stage 3 may be, as compared with the breeding water of stage 2, diluted 2-fold to 50-fold, diluted 3 to 15-fold, diluted 4 to 6-fold, or diluted 5-fold as described above. The average amount of thyroid hormone in the breeding water in stage 3 is 0.01 nM to 2 nM, for example, and may also be 0.05 nM to 1 nM, 0.1 nM to 0.5 nM, or 0.1 nM to 0.2 nM. […] That is, the concentration may be changed such that the thyroid hormone becomes undetectable in the breeding water in the course of stage 3.\nIn stage 3, breeding is continuously performed in the 0.1 nM T4 breeding water. […]", "data": [{"smiles": "N[C@@H](Cc1cc(I)c(Oc2cc(I)c(O)c(I)c2)c(I)c1)C(=O)O", "note": "[T4, thyroxine]", "values": [{"measurement": "metamorphosis stage", "setting": "individual Exp 5-4, 175 days old, total length 43.5 mm at start, c3 onward = treatment days 1,3,5,7,8,9,10,11,12,13,14,15,16,17,18, T4 (nM) 10,10,10,10,2,1,0.2,0.1,0.1,0.1,0.1,0.1, treatment day 1, T4 10 nM", "result": "L"}, {"measurement": "metamorphosis stage", "setting": "individual Exp 5-4, 175 days old, total length 43.5 mm at start, c3 onward = treatment days 1,3,5,7,8,9,10,11,12,13,14,15,16,17,18, T4 (nM) 10,10,10,10,2,1,0.2,0.1,0.1,0.1,0.1,0.1, treatment day 3, T4 10 nM", "result": "L"}, {"measurement": "metamorphosis stage", "setting": "individual Exp 5-4, 175 days old, total length 43.5 mm at start, c3 onward = treatment days 1,3,5,7,8,9,10,11,12,13,14,15,16,17,18, T4 (nM) 10,10,10,10,2,1,0.2,0.1,0.1,0.1,0.1,0.1, treatment day 5, T4 10 nM", "result": 2}, {"measurement": "metamorphosis stage", "setting": "individual Exp 5-4, 175 days old, total length 43.5 mm at start, c3 onward = treatment days 1,3,5,7,8,9,10,11,12,13,14,15,16,17,18, T4 (nM) 10,10,10,10,2,1,0.2,0.1,0.1,0.1,0.1,0.1, treatment day 7, T4 10 nM", "result": 2}, {"measurement": "metamorphosis stage", "setting": "individual Exp 5-4, 175 days old, total length 43.5 mm at start, c3 onward = treatment days 1,3,5,7,8,9,10,11,12,13,14,15,16,17,18, T4 (nM) 10,10,10,10,2,1,0.2,0.1,0.1,0.1,0.1,0.1, treatment day 8, T4 2 nM", "result": 2}, {"measurement": "metamorphosis stage", "setting": "individual Exp 5-4, 175 days old, total length 43.5 mm at start, c3 onward = treatment days 1,3,5,7,8,9,10,11,12,13,14,15,16,17,18, T4 (nM) 10,10,10,10,2,1,0.2,0.1,0.1,0.1,0.1,0.1, treatment day 9, T4 1 nM", "result": 2}, {"measurement": "metamorphosis stage", "setting": "individual Exp 5-4, 175 days old, total length 43.5 mm at start, c3 onward = treatment days 1,3,5,7,8,9,10,11,12,13,14,15,16,17,18, T4 (nM) 10,10,10,10,2,1,0.2,0.1,0.1,0.1,0.1,0.1, treatment day 10, T4 0.2 nM", "result": 2}, {"measurement": "metamorphosis stage", "setting": "individual Exp 5-4, 175 days old, total length 43.5 mm at start, c3 onward = treatment days 1,3,5,7,8,9,10,11,12,13,14,15,16,17,18, T4 (nM) 10,10,10,10,2,1,0.2,0.1,0.1,0.1,0.1,0.1, treatment day 11, T4 0.1 nM", "result": 2}, {"measurement": "metamorphosis stage", "setting": "individual Exp 5-4, 175 days old, total length 43.5 mm at start, c3 onward = treatment days 1,3,5,7,8,9,10,11,12,13,14,15,16,17,18, T4 (nM) 10,10,10,10,2,1,0.2,0.1,0.1,0.1,0.1,0.1, treatment day 12, T4 0.1 nM", "result": 3}, {"measurement": "metamorphosis stage", "setting": "individual Exp 5-4, 175 days old, total length 43.5 mm at start, c3 onward = treatment days 1,3,5,7,8,9,10,11,12,13,14,15,16,17,18, T4 (nM) 10,10,10,10,2,1,0.2,0.1,0.1,0.1,0.1,0.1, treatment day 13, T4 0.1 nM", "result": 3}, {"measurement": "metamorphosis stage", "setting": "individual Exp 5-4, 175 days old, total length 43.5 mm at start, c3 onward = treatment days 1,3,5,7,8,9,10,11,12,13,14,15,16,17,18, T4 (nM) 10,10,10,10,2,1,0.2,0.1,0.1,0.1,0.1,0.1, treatment day 14, T4 0.1 nM", "result": 3}, {"measurement": "metamorphosis stage", "setting": "individual Exp 5-4, 175 days old, total length 43.5 mm at start, c3 onward = treatment days 1,3,5,7,8,9,10,11,12,13,14,15,16,17,18, T4 (nM) 10,10,10,10,2,1,0.2,0.1,0.1,0.1,0.1,0.1, treatment day 15, T4 0.1 nM", "result": 4}, {"measurement": "metamorphosis stage", "setting": "individual Exp 5-5, 174 days old, total length 36.1 mm at start, c3 onward = treatment days 1,3,5,7,8,9,10,11,12,13,14,15,16,17, T4 (nM) 10,10,10,10,10,10,10,2,0.2,0.1,0.1,0.1,0.1,0.1, treatment day 1, T4 10 nM", "result": "L"}, {"measurement": "metamorphosis stage", "setting": "individual Exp 5-5, 174 days old, total length 36.1 mm at start, c3 onward = treatment days 1,3,5,7,8,9,10,11,12,13,14,15,16,17, T4 (nM) 10,10,10,10,10,10,10,2,0.2,0.1,0.1,0.1,0.1,0.1, treatment day 3, T4 10 nM", "result": "L"}, {"measurement": "metamorphosis stage", "setting": "individual Exp 5-5, 174 days old, total length 36.1 mm at start, c3 onward = treatment days 1,3,5,7,8,9,10,11,12,13,14,15,16,17, T4 (nM) 10,10,10,10,10,10,10,2,0.2,0.1,0.1,0.1,0.1,0.1, treatment day 5, T4 10 nM", "result": "L"}, {"measurement": "metamorphosis stage", "setting": "individual Exp 5-5, 174 days old, total length 36.1 mm at start, c3 onward = treatment days 1,3,5,7,8,9,10,11,12,13,14,15,16,17, T4 (nM) 10,10,10,10,10,10,10,2,0.2,0.1,0.1,0.1,0.1,0.1, treatment day 7, T4 10 nM", "result": "L"}, {"measurement": "metamorphosis stage", "setting": "individual Exp 5-5, 174 days old, total length 36.1 mm at start, c3 onward = treatment days 1,3,5,7,8,9,10,11,12,13,14,15,16,17, T4 (nM) 10,10,10,10,10,10,10,2,0.2,0.1,0.1,0.1,0.1,0.1, treatment day 8, T4 10 nM", "result": 2}, {"measurement": "metamorphosis stage", "setting": "individual Exp 5-5, 174 days old, total length 36.1 mm at start, c3 onward = treatment days 1,3,5,7,8,9,10,11,12,13,14,15,16,17, T4 (nM) 10,10,10,10,10,10,10,2,0.2,0.1,0.1,0.1,0.1,0.1, treatment day 9, T4 10 nM", "result": 2}, {"measurement": "metamorphosis stage", "setting": "individual Exp 5-5, 174 days old, total length 36.1 mm at start, c3 onward = treatment days 1,3,5,7,8,9,10,11,12,13,14,15,16,17, T4 (nM) 10,10,10,10,10,10,10,2,0.2,0.1,0.1,0.1,0.1,0.1, treatment day 10, T4 10 nM", "result": 2}, {"measurement": "metamorphosis stage", "setting": "individual Exp 5-5, 174 days old, total length 36.1 mm at start, c3 onward = treatment days 1,3,5,7,8,9,10,11,12,13,14,15,16,17, T4 (nM) 10,10,10,10,10,10,10,2,0.2,0.1,0.1,0.1,0.1,0.1, treatment day 11, T4 2 nM", "result": 3}, {"measurement": "metamorphosis stage", "setting": "individual Exp 5-5, 174 days old, total length 36.1 mm at start, c3 onward = treatment days 1,3,5,7,8,9,10,11,12,13,14,15,16,17, T4 (nM) 10,10,10,10,10,10,10,2,0.2,0.1,0.1,0.1,0.1,0.1, treatment day 12, T4 0.2 nM", "result": 3}, {"measurement": "metamorphosis stage", "setting": "individual Exp 5-5, 174 days old, total length 36.1 mm at start, c3 onward = treatment days 1,3,5,7,8,9,10,11,12,13,14,15,16,17, T4 (nM) 10,10,10,10,10,10,10,2,0.2,0.1,0.1,0.1,0.1,0.1, treatment day 13, T4 0.1 nM", "result": 3}, {"measurement": "metamorphosis stage", "setting": "individual Exp 5-5, 174 days old, total length 36.1 mm at start, c3 onward = treatment days 1,3,5,7,8,9,10,11,12,13,14,15,16,17, T4 (nM) 10,10,10,10,10,10,10,2,0.2,0.1,0.1,0.1,0.1,0.1, treatment day 14, T4 0.1 nM", "result": 3}, {"measurement": "metamorphosis stage", "setting": "individual Exp 5-5, 174 days old, total length 36.1 mm at start, c3 onward = treatment days 1,3,5,7,8,9,10,11,12,13,14,15,16,17, T4 (nM) 10,10,10,10,10,10,10,2,0.2,0.1,0.1,0.1,0.1,0.1, treatment day 15, T4 0.1 nM", "result": 3}]}]}
